This is an account of results in patent US20240140991A1, “ANTIBIOTIC NATURAL PRODUCT ANALOGUES” (THE QUEEN'S UNIVERSITY OF BELFAST, priority 2021, published 2024).

The experiment deals with Escherichia coli ATCC 25922. The experiment is classed as cell-based. The note with it: ATCC 25922. As for the experimental part: Minimum inhibitory concentration (MIC) was determined by broth microdilution according to CLSI guidelines. Blood agar plates were inoculated with glycerol stocks of Escherichia coli ATCC 25922, E. coli ATCC 25922 MCR-1, E. coli MCR-1 (clinical isolate from Utrecht Medical Center, NL), E. coli EQAS MCR-2 (clinical isolate from Wageningen University and Research, NL), Kiebsielia pneumoniae ATCC 11228, K. pneumoniae ATCC 13883, K. pneumonia 2048 (clinical isolate from Vrije Universiteit Amsterdam Medical Center, NL), K. pneumonia JS-123 (clinical isolate from Utrecht Medical Center, NL), Acinetobacter baumannii ATCC 17961, A. baumannil ATCC 17978, A. baumannii 2018-006 (clinical isolate from Rijksinstituut voor Volksgezondheid en Milieu, NL), A. baumannii MDR (clinical isolate from Vrije Universiteit Amsterdam Medical Center, NL), Pseudomonas aeruginosa ATCC 27853, P. aeruginosa PAO1, P. aeruginosa NRZ-03961 (Reference strain from Das Nationale Referenzzentrum für gramnegative Krankenhauserreger, DE), P. aeruginosa M-120 (clinical isolate from Leiden University Medical Center, NL) and Staphylococcus aureus USA300 (clinical isolate from Texas Children's Hospitalm, USA). E. coli 25922 MCR1 was grown on LB agar supplemented with kanamycin. The inoculated agar plates were then incubated for 16 hours at 37° C. Individually grown colonies were subsequently used to inoculate 3 mL aliquots of TSB that were then incubated at 37° C. with shaking at 220 rpm. In parallel, the compounds to be assessed were serially diluted with Mueller-Hinton broth (MHB) in polypropylene 96-well plates (50 μL in each well). Once the OD600 of the bacterial suspensions reached 0.5, the bacteria were diluted with MHB (final concentration 2×10^5 CFU mL^−1) and added to the microplates containing the test compounds (50 μL to each well, final volume: 100 μL). The well-plates were sealed with an adhesive membrane and after 16 hours of incubation at 37° C. with shaking at 220 rpm the wells were visually inspected for bacterial growth. MIC values were defined as the lowest concentration of the compound that prevented visible growth of bacteria.

Converted amounts (≈) assume the structure as drawn. Non-standard residues stand in square brackets, D forms with d. Residues, ends and D or L forms follow the SMILES beside them. *: point of attachment. Octanoyl(7-Me) = CC(C)CCCCCC(=O)*; dOrn = NCCC[C@@H](N)C(=O)O; Orn = NCCC[C@H](N)C(=O)O

In the case of `C[C@@H](N=[N+]=[N-])[C@H](N)C(=O)O` [(2S,3R)-2-amino-3-azidobutanoic acid], the “Minimum inhibitory concentration (MIC)” value was 2 to 4 mg/L.
Then `CC[C@H](C)[C@H](NC(=O)[C@@H](NC(=O)[C@H](Cc1c[nH]c2ccccc12)NC(=O)[C@@H](CCCN)NC(=O)CNC(=O)[C@H](CCCN)NC(=O)[C@@H](CCCN)NC(=O)[C@@H](Cc1c[nH]c2ccccc12)NC(=O)[C@@H](Cc1ccc(O)cc1)NC(=O)[C@@H](C)NC(=O)CCCCCC(C)C)[C@@H](C)O)C(=O)N[C@@H](CC(N)=O)C(=O)NCC(=O)NCC(N)=O` [Ala1 (D-Ser→D-Ala), FA-aywoOGoWTINGG-CONH2] ({Octanoyl(7-Me)}-[dA][dY][dW][dOrn][Orn]G[dOrn]WTINGG-NH2), with 4 to 8 mg/L; and `CC[C@H](C)[C@H](NC(=O)[C@@H](NC(=O)[C@H](Cc1c[nH]c2ccccc12)NC(=O)[C@@H](CCCN)NC(=O)CNC(=O)[C@H](CCCN)NC(=O)[C@@H](CCCN)NC(=O)[C@@H](Cc1c[nH]c2ccccc12)NC(=O)[C@@H](C)NC(=O)[C@@H](CO)NC(=O)CCCCCC(C)C)[C@@H](C)O)C(=O)N[C@@H](CC(N)=O)C(=O)NCC(=O)NCC(N)=O` [Ala2 (D-Tyr→D-Ala), FA-sawoOGoWTINGG-CONH2] ({Octanoyl(7-Me)}-[dS][dA][dW][dOrn][Orn]G[dOrn]WTINGG-NH2), with 8 to 16 mg/L; and `CC[C@H](C)[C@H](NC(=O)[C@@H](NC(=O)[C@H](Cc1c[nH]c2ccccc12)NC(=O)[C@@H](CCCN)NC(=O)CNC(=O)[C@H](CCCN)NC(=O)[C@@H](CCCN)NC(=O)[C@@H](C)NC(=O)[C@@H](Cc1ccc(O)cc1)NC(=O)[C@@H](CO)NC(=O)CCCCCC(C)C)[C@@H](C)O)C(=O)N[C@@H](CC(N)=O)C(=O)NCC(=O)NCC(N)=O` [Ala3 (D-Trp→D-Ala), FA-syaoOGoWTINGG-CONH2] ({Octanoyl(7-Me)}-[dS][dY][dA][dOrn][Orn]G[dOrn]WTINGG-NH2), with 16 mg/L (≈ 10.6 µM).
For `CC[C@H](C)[C@H](NC(=O)[C@@H](NC(=O)[C@H](Cc1c[nH]c2ccccc12)NC(=O)[C@@H](CCCN)NC(=O)CNC(=O)[C@H](CCCN)NC(=O)[C@@H](C)NC(=O)[C@@H](Cc1c[nH]c2ccccc12)NC(=O)[C@@H](Cc1ccc(O)cc1)NC(=O)[C@@H](CO)NC(=O)CCCCCC(C)C)[C@@H](C)O)C(=O)N[C@@H](CC(N)=O)C(=O)NCC(=O)NCC(N)=O` [Ala4 (D-Orn→D-Ala), FA-sywaOGoWTINGG-CONH2] ({Octanoyl(7-Me)}-[dS][dY][dW][dA][Orn]G[dOrn]WTINGG-NH2), the “Minimum inhibitory concentration (MIC)” value came out at 32 mg/L (≈ 20.3 µM).
For `CC[C@H](C)[C@H](NC(=O)[C@@H](NC(=O)[C@H](Cc1c[nH]c2ccccc12)NC(=O)[C@@H](CCCN)NC(=O)CNC(=O)[C@H](C)NC(=O)[C@@H](CCCN)NC(=O)[C@@H](Cc1c[nH]c2ccccc12)NC(=O)[C@@H](Cc1ccc(O)cc1)NC(=O)[C@@H](CO)NC(=O)CCCCCC(C)C)[C@@H](C)O)C(=O)N[C@@H](CC(N)=O)C(=O)NCC(=O)NCC(N)=O` [Ala5 (Orn→Ala), FA-sywoAGoWTINGG-CONH2] ({Octanoyl(7-Me)}-[dS][dY][dW][dOrn]AG[dOrn]WTINGG-NH2), the “Minimum inhibitory concentration (MIC)” value came to 32 mg/L (≈ 20.3 µM).
With `CC[C@H](C)[C@H](NC(=O)[C@@H](NC(=O)[C@H](Cc1c[nH]c2ccccc12)NC(=O)[C@@H](CCCN)NC(=O)[C@H](C)NC(=O)[C@H](CCCN)NC(=O)[C@@H](CCCN)NC(=O)[C@@H](Cc1c[nH]c2ccccc12)NC(=O)[C@@H](Cc1ccc(O)cc1)NC(=O)[C@@H](CO)NC(=O)CCCCCC(C)C)[C@@H](C)O)C(=O)N[C@@H](CC(N)=O)C(=O)NCC(=O)NCC(N)=O` [Ala6 (Gly→Ala), FA-sywoOAoWTINGG-CONH2] ({Octanoyl(7-Me)}-[dS][dY][dW][dOrn][Orn]A[dOrn]WTINGG-NH2), the “Minimum inhibitory concentration (MIC)” value fell in the range of 4 to 8 mg/L.
As to `CC[C@H](C)[C@H](NC(=O)[C@@H](NC(=O)[C@H](Cc1c[nH]c2ccccc12)NC(=O)[C@@H](C)NC(=O)CNC(=O)[C@H](CCCN)NC(=O)[C@@H](CCCN)NC(=O)[C@@H](Cc1c[nH]c2ccccc12)NC(=O)[C@@H](Cc1ccc(O)cc1)NC(=O)[C@@H](CO)NC(=O)CCCCCC(C)C)[C@@H](C)O)C(=O)N[C@@H](CC(N)=O)C(=O)NCC(=O)NCC(N)=O` [Ala7 (D-Orn→D-Ala), FA-sywoOGaWTINGG-CONH2] ({Octanoyl(7-Me)}-[dS][dY][dW][dOrn][Orn]G[dA]WTINGG-NH2), the “Minimum inhibitory concentration (MIC)” value was greater than 64 mg/L.
`CC[C@H](C)[C@H](NC(=O)[C@@H](NC(=O)[C@H](C)NC(=O)[C@@H](CCCN)NC(=O)CNC(=O)[C@H](CCCN)NC(=O)[C@@H](CCCN)NC(=O)[C@@H](Cc1c[nH]c2ccccc12)NC(=O)[C@@H](Cc1ccc(O)cc1)NC(=O)[C@@H](CO)NC(=O)CCCCCC(C)C)[C@@H](C)O)C(=O)N[C@@H](CC(N)=O)C(=O)NCC(=O)NCC(N)=O` [Ala8 (Trp→Ala), FA-sywoOGoATINGG-CONH2] ({Octanoyl(7-Me)}-[dS][dY][dW][dOrn][Orn]G[dOrn]ATINGG-NH2): the “Minimum inhibitory concentration (MIC)” value is greater than 64 mg/L.
Turning to `CC[C@H](C)[C@H](NC(=O)[C@H](C)NC(=O)[C@H](Cc1c[nH]c2ccccc12)NC(=O)[C@@H](CCCN)NC(=O)CNC(=O)[C@H](CCCN)NC(=O)[C@@H](CCCN)NC(=O)[C@@H](Cc1c[nH]c2ccccc12)NC(=O)[C@@H](Cc1ccc(O)cc1)NC(=O)[C@@H](CO)NC(=O)CCCCCC(C)C)C(=O)N[C@@H](CC(N)=O)C(=O)NCC(=O)NCC(N)=O` [Ala9 (Thr→Ala), FA-sywoOGoWAINGG-CONH2] ({Octanoyl(7-Me)}-[dS][dY][dW][dOrn][Orn]G[dOrn]WAINGG-NH2), the “Minimum inhibitory concentration (MIC)” value was 2 mg/L (≈ 1.26 µM).
Then `CC(C)CCCCCC(=O)N[C@H](CO)C(=O)N[C@H](Cc1ccc(O)cc1)C(=O)N[C@H](Cc1c[nH]c2ccccc12)C(=O)N[C@H](CCCN)C(=O)N[C@@H](CCCN)C(=O)NCC(=O)N[C@H](CCCN)C(=O)N[C@@H](Cc1c[nH]c2ccccc12)C(=O)N[C@H](C(=O)N[C@@H](C)C(=O)N[C@@H](CC(N)=O)C(=O)NCC(=O)NCC(N)=O)[C@@H](C)O` [Ala10 (Ile→Ala), FA-sywoOGoWTANGG-CONH2] ({Octanoyl(7-Me)}-[dS][dY][dW][dOrn][Orn]G[dOrn]WTANGG-NH2), with 16 mg/L (≈ 10.1 µM); and `CC[C@H](C)[C@H](NC(=O)[C@@H](NC(=O)[C@H](Cc1c[nH]c2ccccc12)NC(=O)[C@@H](CCCN)NC(=O)CNC(=O)[C@H](CCCN)NC(=O)[C@@H](CCCN)NC(=O)[C@@H](Cc1c[nH]c2ccccc12)NC(=O)[C@@H](Cc1ccc(O)cc1)NC(=O)[C@@H](CO)NC(=O)CCCCCC(C)C)[C@@H](C)O)C(=O)N[C@@H](C)C(=O)NCC(=O)NCC(N)=O` [Ala11 (Asn→Ala), FA-sywoOGoWTIAGG-CONH2] ({Octanoyl(7-Me)}-[dS][dY][dW][dOrn][Orn]G[dOrn]WTIAGG-NH2), with 16 mg/L (≈ 10.1 µM); and `CC[C@H](C)[C@H](NC(=O)[C@@H](NC(=O)[C@H](Cc1c[nH]c2ccccc12)NC(=O)[C@@H](CCCN)NC(=O)CNC(=O)[C@H](CCCN)NC(=O)[C@@H](CCCN)NC(=O)[C@@H](Cc1c[nH]c2ccccc12)NC(=O)[C@@H](Cc1ccc(O)cc1)NC(=O)[C@@H](CO)NC(=O)CCCCCC(C)C)[C@@H](C)O)C(=O)N[C@@H](CC(N)=O)C(=O)N[C@@H](C)C(=O)NCC(N)=O` [Ala12 (Gly→Ala), FA-sywoOGoWTINAG-CONH2] ({Octanoyl(7-Me)}-[dS][dY][dW][dOrn][Orn]G[dOrn]WTINAG-NH2), with 4 mg/L (≈ 2.45 µM).
In the case of `CC[C@H](C)[C@H](NC(=O)[C@@H](NC(=O)[C@H](Cc1c[nH]c2ccccc12)NC(=O)[C@@H](CCCN)NC(=O)CNC(=O)[C@H](CCCN)NC(=O)[C@@H](CCCN)NC(=O)[C@@H](Cc1c[nH]c2ccccc12)NC(=O)[C@@H](Cc1ccc(O)cc1)NC(=O)[C@@H](CO)NC(=O)CCCCCC(C)C)[C@@H](C)O)C(=O)N[C@@H](CC(N)=O)C(=O)NCC(=O)N[C@@H](C)C(N)=O` [Ala13 (Gly→Ala), FA-sywoOGoWTINGA-CONH2] ({Octanoyl(7-Me)}-[dS][dY][dW][dOrn][Orn]G[dOrn]WTINGA-NH2), the “Minimum inhibitory concentration (MIC)” value was 4 mg/L (≈ 2.45 µM).
In the case of `CC[C@H](C)[C@H](NC(=O)[C@H](CC(N)=O)NC(=O)[C@H](Cc1c[nH]c2ccccc12)NC(=O)[C@@H](CCCN)NC(=O)CNC(=O)[C@H](CCCN)NC(=O)[C@@H](CCCN)NC(=O)[C@@H](Cc1c[nH]c2ccccc12)NC(=O)[C@@H](Cc1ccc(O)cc1)NC(=O)[C@@H](CO)NC(=O)CCCCCC(C)C)C(=O)N[C@@H](CC(N)=O)C(=O)NCC(=O)NCC(N)=O` [Asn9-CONH2] ({Octanoyl(7-Me)}-[dS][dY][dW][dOrn][Orn]G[dOrn]WNINGG-NH2), the “Minimum inhibitory concentration (MIC)” value was found to be 4 mg/L (≈ 2.45 µM).
